Results from the NIST ThermoML archive (doi:10.1016/j.fluid.2018.10.006).
± gives the expanded uncertainty stated by the source.

Settings: Fluid (supercritical or subcritical phases), Coaxial cylinder method

CCCCCC [hexane]
Settings	thermal conductivity [W/m/K]
513.09 K, 8500 kPa	0.07722 ± 0.0036
513.09 K, 8790 kPa	0.07758 ± 0.0036
513.09 K, 8830 kPa	0.07762 ± 0.0036
513.09 K, 8882 kPa	0.07769 ± 0.0036
513.09 K, 9275 kPa	0.07816 ± 0.0036
513.09 K, 9297 kPa	0.07816 ± 0.0036
513.09 K, 9300 kPa	0.07816 ± 0.0036
513.09 K, 9344 kPa	0.0782 ± 0.0036
513.09 K, 9367 kPa	0.07824 ± 0.0036
513.09 K, 9700 kPa	0.07864 ± 0.0036
513.09 K, 9900 kPa	0.07883 ± 0.0037
513.09 K, 10000 kPa	0.07894 ± 0.0037
515.56 K, 676 kPa	0.03834 ± 0.002
515.56 K, 700 kPa	0.03843 ± 0.002
515.56 K, 900 kPa	0.03853 ± 0.002
515.56 K, 1220 kPa	0.039 ± 0.002
515.56 K, 1221 kPa	0.039 ± 0.002
515.56 K, 1672 kPa	0.04008 ± 0.0021
515.56 K, 1786 kPa	0.04038 ± 0.0021
515.56 K, 1822 kPa	0.04059 ± 0.0021
515.56 K, 2209 kPa	0.0423 ± 0.0021
515.56 K, 2287 kPa	0.04275 ± 0.0022
515.56 K, 2404 kPa	0.04344 ± 0.0022
515.56 K, 2503 kPa	0.04392 ± 0.0022
515.56 K, 2607 kPa	0.04465 ± 0.0022
515.56 K, 2688 kPa	0.04553 ± 0.0023
515.56 K, 2751 kPa	0.04606 ± 0.0023
515.56 K, 2811 kPa	0.04699 ± 0.0023
515.56 K, 2856 kPa	0.04713 ± 0.0023
515.56 K, 2919 kPa	0.04712 ± 0.0023
515.56 K, 2953 kPa	0.04782 ± 0.0024
515.56 K, 2989 kPa	0.04928 ± 0.0024
515.56 K, 3019 kPa	0.05004 ± 0.0024
515.56 K, 3062 kPa	0.05082 ± 0.0025
515.56 K, 3072 kPa	0.05082 ± 0.0025
515.56 K, 3083 kPa	0.05163 ± 0.0025
515.56 K, 3103 kPa	0.05247 ± 0.0026
515.56 K, 3114 kPa	0.05247 ± 0.0026
515.56 K, 3122 kPa	0.05247 ± 0.0026
515.56 K, 3140 kPa	0.05247 ± 0.0026
515.56 K, 3153 kPa	0.05333 ± 0.0026
515.56 K, 3164 kPa	0.05333 ± 0.0026
515.56 K, 3174 kPa	0.05422 ± 0.0026
515.56 K, 3180 kPa	0.05422 ± 0.0026
515.56 K, 3193 kPa	0.05609 ± 0.0027
515.56 K, 3201 kPa	0.05609 ± 0.0027
515.56 K, 3209 kPa	0.05609 ± 0.0027
515.56 K, 3220 kPa	0.05609 ± 0.0027
515.56 K, 3230 kPa	0.05808 ± 0.0028
515.56 K, 3235 kPa	0.05808 ± 0.0028
515.56 K, 3243 kPa	0.05808 ± 0.0028
515.56 K, 3249 kPa	0.05808 ± 0.0028
515.56 K, 3257 kPa	0.06022 ± 0.0029
515.56 K, 3265 kPa	0.06022 ± 0.0029
515.56 K, 3270 kPa	0.06022 ± 0.0029
515.56 K, 3275 kPa	0.06022 ± 0.0029
515.56 K, 3283 kPa	0.06205 ± 0.0029
515.56 K, 3293 kPa	0.06205 ± 0.0029
515.56 K, 3301 kPa	0.06374 ± 0.003
515.56 K, 3309 kPa	0.06474 ± 0.0031
515.56 K, 3316 kPa	0.065 ± 0.0031
515.56 K, 3322 kPa	0.06539 ± 0.0031
515.56 K, 3329 kPa	0.06578 ± 0.0031
515.56 K, 3334 kPa	0.06604 ± 0.0031
515.56 K, 3339 kPa	0.06631 ± 0.0031
515.56 K, 3342 kPa	0.06658 ± 0.0031
515.56 K, 3347 kPa	0.06685 ± 0.0032
515.56 K, 3350 kPa	0.06698 ± 0.0032
515.56 K, 3352 kPa	0.06712 ± 0.0032
515.56 K, 3357 kPa	0.06737 ± 0.0032
515.56 K, 3360 kPa	0.06751 ± 0.0032
515.56 K, 3362 kPa	0.06759 ± 0.0032
515.56 K, 3368 kPa	0.06795 ± 0.0032
515.56 K, 3373 kPa	0.06823 ± 0.0032
515.56 K, 3386 kPa	0.06866 ± 0.0032
515.56 K, 3394 kPa	0.06909 ± 0.0032
515.56 K, 3426 kPa	0.06997 ± 0.0033
515.56 K, 3453 kPa	0.06911 ± 0.0032
515.56 K, 3462 kPa	0.06911 ± 0.0032
515.56 K, 3482 kPa	0.06911 ± 0.0032
515.56 K, 3490 kPa	0.06911 ± 0.0032
515.56 K, 3499 kPa	0.06911 ± 0.0032
515.56 K, 3520 kPa	0.06911 ± 0.0032
515.56 K, 3541 kPa	0.06911 ± 0.0032
515.56 K, 3550 kPa	0.06911 ± 0.0032
515.56 K, 3566 kPa	0.06911 ± 0.0032
515.56 K, 3579 kPa	0.06769 ± 0.0032
515.56 K, 3614 kPa	0.06769 ± 0.0032
515.56 K, 3638 kPa	0.06769 ± 0.0032
515.56 K, 3682 kPa	0.06769 ± 0.0032
515.56 K, 3700 kPa	0.06769 ± 0.0032
515.56 K, 3750 kPa	0.06938 ± 0.0032
515.56 K, 3800 kPa	0.06938 ± 0.0032
515.56 K, 3841 kPa	0.06944 ± 0.0033
515.56 K, 3900 kPa	0.0695 ± 0.0033
515.56 K, 3928 kPa	0.06953 ± 0.0033
515.56 K, 3941 kPa	0.06959 ± 0.0033
515.56 K, 3995 kPa	0.06965 ± 0.0033
515.56 K, 4000 kPa	0.06968 ± 0.0033
515.56 K, 4025 kPa	0.06968 ± 0.0033
515.56 K, 4104 kPa	0.06983 ± 0.0033
515.56 K, 4200 kPa	0.07004 ± 0.0033
515.56 K, 4307 kPa	0.07016 ± 0.0033
515.56 K, 4388 kPa	0.07034 ± 0.0033
515.56 K, 4400 kPa	0.0704 ± 0.0033
515.56 K, 4488 kPa	0.07058 ± 0.0033
515.56 K, 4537 kPa	0.07067 ± 0.0033
515.56 K, 4593 kPa	0.0708 ± 0.0033
515.56 K, 4620 kPa	0.07089 ± 0.0033
515.56 K, 4700 kPa	0.07098 ± 0.0033
515.56 K, 4790 kPa	0.07114 ± 0.0033
515.56 K, 4800 kPa	0.07117 ± 0.0033
515.56 K, 4830 kPa	0.07123 ± 0.0033
515.56 K, 4900 kPa	0.07129 ± 0.0033
515.56 K, 5000 kPa	0.07151 ± 0.0033
515.56 K, 5100 kPa	0.07167 ± 0.0034
515.56 K, 5130 kPa	0.0717 ± 0.0034
515.56 K, 5200 kPa	0.07182 ± 0.0034
515.56 K, 5300 kPa	0.07198 ± 0.0034
515.56 K, 5400 kPa	0.07217 ± 0.0034
515.56 K, 5580 kPa	0.07243 ± 0.0034
515.56 K, 5600 kPa	0.07246 ± 0.0034
515.56 K, 5690 kPa	0.07265 ± 0.0034
515.56 K, 5740 kPa	0.07275 ± 0.0034
515.56 K, 5800 kPa	0.07285 ± 0.0034
515.56 K, 5900 kPa	0.07301 ± 0.0034
515.56 K, 6050 kPa	0.07327 ± 0.0034
515.56 K, 6060 kPa	0.07327 ± 0.0034
515.56 K, 6080 kPa	0.0733 ± 0.0034
515.56 K, 6300 kPa	0.07366 ± 0.0034
515.56 K, 6380 kPa	0.0738 ± 0.0034
515.56 K, 6460 kPa	0.07393 ± 0.0034
515.56 K, 6610 kPa	0.07417 ± 0.0034
515.56 K, 6920 kPa	0.07464 ± 0.0035
515.56 K, 6950 kPa	0.07468 ± 0.0035
515.56 K, 7020 kPa	0.07478 ± 0.0035
515.56 K, 7100 kPa	0.07488 ± 0.0035
515.56 K, 7470 kPa	0.0754 ± 0.0035
515.56 K, 7560 kPa	0.07554 ± 0.0035
515.56 K, 7570 kPa	0.07557 ± 0.0035
515.56 K, 7600 kPa	0.0756 ± 0.0035
515.56 K, 7840 kPa	0.07592 ± 0.0035
515.56 K, 7870 kPa	0.07595 ± 0.0035
515.56 K, 7940 kPa	0.07602 ± 0.0035
515.56 K, 8050 kPa	0.07617 ± 0.0035
515.56 K, 8100 kPa	0.0762 ± 0.0035
515.56 K, 8140 kPa	0.07624 ± 0.0035
515.56 K, 8230 kPa	0.07638 ± 0.0035
515.56 K, 8370 kPa	0.07656 ± 0.0036
515.56 K, 8470 kPa	0.07663 ± 0.0036
515.56 K, 8540 kPa	0.0767 ± 0.0036
515.56 K, 8730 kPa	0.07695 ± 0.0036
515.56 K, 8870 kPa	0.07714 ± 0.0036
515.56 K, 9080 kPa	0.07739 ± 0.0036
515.56 K, 9100 kPa	0.07739 ± 0.0036
525.42 K, 1000 kPa	0.0403 ± 0.0021
525.42 K, 1500 kPa	0.0416 ± 0.0021
525.42 K, 1975 kPa	0.04209 ± 0.0021
525.42 K, 1984 kPa	0.04209 ± 0.0021
525.42 K, 2100 kPa	0.04213 ± 0.0021
525.42 K, 2200 kPa	0.04213 ± 0.0021
525.42 K, 2300 kPa	0.04213 ± 0.0021
525.42 K, 2404 kPa	0.04213 ± 0.0021
525.42 K, 2423 kPa	0.04213 ± 0.0021
525.42 K, 2425 kPa	0.04213 ± 0.0021
